Measurements published in patent US8658675B2, “Pyridin-4-yl derivatives” (Actelion Pharmaceuticals Ltd., priority 2009, dated 2014).

Key:
[1] = tested on: circulating lymphocytes; experiment: Assessment of in vivo efficacy: circulating lymphocytes after oral administration; set-up: species or system normotensive male Wistar rats; settings: Rattus norvegicus, Lymphocyte; 6 h after oral administration of 10 mg/kg, male Wistar rats, compared to vehicle group; read-out: Lymphocyte counts
Procedure: The efficacy of the compounds of Formula (I) is assessed by measuring the circulating lymphocytes after oral administration of 3 to 30 mg/kg of a compound of Formula (I) to normotensive male Wistar rats. The animals are housed in climate-controlled conditions with a 12 h-light/dark cycle, and have free access to normal rat chow and drinking water. Blood is collected before and 3, 6 and 24 h after drug administration. Full blood is subjected to hematology using Advia Hematology system (Bayer Diagnostics, Zurich, Switzerland).
All data are presented as mean±SEM. Statistical analyses are performed by analysis of variance (ANOVA) using Statistica (StatSoft) and the Student-Newman-Keuls procedure for multiple comparisons. The null hypothesis is rejected when p<0.05.
Lymphocyte counts 6 h after oral administration have been measured for 23 out of 30 exemplified compounds and are in the range of −42% to −80% with an average of −63%.

[2] = tested on: rat trachea rings; experiment: Measurement of isometric force development: rat trachea ring constriction; set-up: species or system Female Wistar rats; settings: compound at 10 μM; in % of the constriction induced by 50 mM KCl
[3] = tested on: rat trachea rings; experiment: as above; set-up: species or system Female Wistar rats; settings: for % trachea constriction at 1 μM: compound at 1 μM, in % of the constriction induced by 50 mM KCl; for potential to constrict rat trachea rings (comparison in words): compared to closest prior art analogues of WO 2008/029371 or to Example 2
Procedure: Animals were obtained from RCC Ltd (Füllinsdorf, Switzerland). Female Wistar rats were euthanized by exposure to CO2. The tracheae were excised and rings from the lower segments were prepared. Rings of trachea were suspended in tissue baths (10 mL) containing Krebs-Henseleit buffer of the following composition (mM): NaCl 115; KCl 4.7; MgSO4 1.2; KH2PO4 1.5; CaCl2 2.5; NaHCO3 25; glucose 10. Bathing solution was maintained at 37° C. and aerated with 95% O2/5% CO2 (pH 7.4). A resting force of 2 g (20 mN) was applied to the ring preparation, and changes in force generation were measured using an isometric force recorder (EMKA Technologies Inc, Paris, France). Viability of rings was assessed by exposure to a depolarizing concentration of KCl (50 mM). Contraction of trachea was expressed as a percentage of the response to KCl.
All compounds were prepared as stock solutions of 0.3 mM in pure DMSO. Compounds were added to the bath (10 mL) in a volume of 33 μL to give a final bath concentration of DMSO of 0.33%.
Contraction of trachea was measured for 15 out of 30 exemplified compounds.

[4] = target: human S1P1 receptor (Homo sapiens, UniProt P21453); experiment: GTPγS assay to determine EC50 values; assay type: biochemical; settings: membranes of CHO cells expressing recombinant human S1P1 receptor; 35S-GTPγS binding
Procedure: GTPγS binding assays are performed in 96 well microtiter plates (Nunc, 442587) in a final volume of 200 μl, using membrane preparations of CHO cells expressing recombinant human S1P1 receptor. Assay conditions are 20 mM Hepes (Fluka, 54461), 100 mM NaCl (Fluka, 71378), 5 mM MgCl2 (Fluka, 63064), 0.1% BSA (Calbiochem, 126609), 1 μM GDP (Sigma, G-7127), 2.5% DMSO (Fluka, 41644), […] ^35S-GTPγS (Amersham Biosciences, SJ1320). The pH is 7.4. Test compounds are dissolved and diluted in 100% DMSO and pre-incubated at room temperature for 30 min in 150 μl of the above assay buffer, in the absence of ^35S-GTPγS. After addition of 50 μl of ^35S-GTPγS, the assay is incubated for 1 h at rt. The assay is terminated by transfer of the reaction mixture to a Multiscreen plate (Millipore, MAHFC1H60) using a cell harvester from Packard Biosciences, and the plates are washed with ice-cold 10 mM Na2HPO4/NaH2PO4 (70%/30%), dried, sealed at the bottom and, after addition of 25 μl MicroScint20 (Packard Biosciences, order#6013621), sealed on the top. Membrane-bound ^35S-GTPγS is measured with a TopCount from Packard Biosciences.
EC50 is the concentration of agonist inducing 50% of the maximal specific ^35S-GTPγS binding. Specific binding is determined by subtracting non-specific binding from maximal binding. Maximal binding is the amount of cpm bound to the Multiscreen plate in the presence of 10 μM of S1P. Non-specific binding is the amount of binding in the absence of an agonist in the assay.
Agonistic activities (EC50 values) of all exemplified compounds have been measured.

Sequence of human S1P1 receptor (P21453 whole entry): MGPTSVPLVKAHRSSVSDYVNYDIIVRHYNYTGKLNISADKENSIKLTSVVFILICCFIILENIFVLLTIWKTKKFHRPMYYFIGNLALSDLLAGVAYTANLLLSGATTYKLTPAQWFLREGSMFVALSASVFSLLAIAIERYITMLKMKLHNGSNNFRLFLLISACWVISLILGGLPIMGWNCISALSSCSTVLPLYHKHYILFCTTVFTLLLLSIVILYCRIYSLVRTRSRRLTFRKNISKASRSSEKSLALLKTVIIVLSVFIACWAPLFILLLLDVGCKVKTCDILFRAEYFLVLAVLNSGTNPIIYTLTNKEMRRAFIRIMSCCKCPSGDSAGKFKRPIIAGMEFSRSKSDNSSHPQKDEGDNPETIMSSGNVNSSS

| Structure (SMILES) | % trachea constriction at 10 μM [2] | % trachea constriction at 1 μM [3] | EC50 [4] | change in vivo at 10 mg/kg [1] | potential to constrict rat trachea rings (comparison in words) [3] |
| --- | --- | --- | --- | --- | --- |
| CCc1cc(-c2noc(-c3cc(OC)nc(C4CCCCC4)c3)n2)cc(C)c1OC[C@@H](O)CNC(=O)CO [Example 8, N-((2S)-3-{4-[5-(2-Cyclohexyl-6-methoxy-pyridin-4-yl)-[1,2,4]oxadiazol-3-yl]-2-ethyl-6-methyl-phenoxy}-2-hydroxy-propyl)-2-hydroxy-acetamide] | – | <5% | 10.8 nM | -58% | – |
| CCc1cc(-c2noc(-c3cc(OC)nc(C(CC)CC)c3)n2)cc(C)c1OC[C@@H](O)CNC(=O)CO [Example 6, N-[(2S)-3-(2-Ethyl-4-{5-[2-(1-ethyl-propyl)-6-methoxy-pyridin-4-yl]-[1,2,4]oxadiazol-3-yl}-6-methyl-phenoxy)-2-hydroxy-propyl]-2-hydroxy-acetamide] | 100% | <5% | 0.6 nM | -59% | significantly reduced potential to constrict rat trachea rings |
| COc1cc(-c2nc(-c3cc(C)c(OC[C@@H](O)CO)c(Cl)c3)no2)cc(C2CCCC2)n1 [Example 13, (S)-3-{2-Chloro-4-[5-(2-cyclopentyl-6-methoxy-pyridin-4-yl)-[1,2,4]oxadiazol-3-yl]-6-methyl-phenoxy}-propane-1,2-diol] | – | <5% | 1 nM | -60% | – |
| CCc1cc(-c2noc(-c3cc(OC)nc(C(CC)CC)c3)n2)cc(C)c1OC[C@@H](O)CO [Example 1, (S)-3-(2-Ethyl-4-{5-[2-(1-ethyl-propyl)-6-methoxy-pyridin-4-yl]-[1,2,4]oxadiazol-3-yl}-6-methyl-phenoxy)-propane-1,2-diol] | 24% | <5% | 2.7 nM | -63% | significantly reduced potential to constrict rat trachea rings |
| CCc1cc(-c2noc(-c3cc(CCC(C)C)nc(OC)c3)n2)cc(C)c1OC[C@@H](O)CNC(=O)CO [Example 16, N-[(2S)-3-(2-Ethyl-4-{5-[2-methoxy-6-(3-methyl-butyl)-pyridin-4-yl]-[1,2,4]oxadiazol-3-yl}-6-methyl-phenoxy)-2-hydroxy-propyl]-2-hydroxy-acetamide] | – | <5% | 0.7 nM | -73% | markedly reduced potential to constrict rat trachea rings |

More lines, main results first:

| % trachea constriction at 10 μM [2] | % trachea constriction at 1 μM [3] | EC50 [4] | Structure (SMILES) | change in vivo at 10 mg/kg [1] | potential to constrict rat trachea rings (comparison in words) [3] |
| --- | --- | --- | --- | --- | --- |
| <5% | <5% | 2.6 nM | CCc1cc(-c2noc(-c3cc(OC)nc(C4CCCC4)c3)n2)cc(C)c1OC[C@@H](O)CN(C)C(=O)CO [Example 10, N-((2S)-3-{4-[5-(2-Cyclopentyl-6-methoxy-pyridin-4-yl)-[1,2,4]oxadiazol-3-yl]-2-ethyl-6-methyl-phenoxy}-2-hydroxy-propyl)-2-hydroxy-N-methyl-acetamide] | -68% | – |
| <5% | <5% | 2.5 nM | CCc1cc(-c2noc(-c3cc(OC)nc(C(CC)CC)c3)n2)cc(C)c1NS(C)(=O)=O [Example 18, N-(2-Ethyl-4-{5-[2-(1-ethyl-propyl)-6-methoxy-pyridin-4-yl]-[1,2,4]oxadiazol-3-yl}-6-methyl-phenyl)-methanesulfonamide] | -42% | – |
| <5% | <5% | 0.3 nM | COc1cc(-c2nc(-c3cc(C)c(NS(C)(=O)=O)c(Cl)c3)no2)cc(C2CCCC2)n1 [Example 12, N-{2-Chloro-4-[5-(2-cyclopentyl-6-methoxy-pyridin-4-yl)-[1,2,4]oxadiazol-3-yl]-6-methyl-phenyl}-methanesulfonamide] | -64% | – |
| <5% | <5% | 0.9 nM | CCc1cc(-c2noc(-c3cc(OC)nc(C4CCCC4)c3)n2)cc(C)c1OC[C@@H](O)CO [Example 2, (S)-3-{4-[5-(2-Cyclopentyl-6-methoxy-pyridin-4-yl)-[1,2,4]oxadiazol-3-yl]-2-ethyl-6-methyl-phenoxy}-propane-1,2-diol] | -70% | markedly reduced potential to constrict rat trachea rings |
| – | <5% | 1 nM | CCc1cc(-c2noc(-c3cc(OC)nc(C4CCCC4)c3)n2)cc(C)c1OC[C@H](O)CO [Example 3, (R)-3-{4-[5-(2-Cyclopentyl-6-methoxy-pyridin-4-yl)-[1,2,4]oxadiazol-3-yl]-2-ethyl-6-methyl-phenoxy}-propane-1,2-diol] | -63% | same low potential to constrict rat trachea rings |
| <5% | <5% | 1 nM | CCc1cc(-c2noc(-c3cc(OC)nc(C4CCCC4)c3)n2)cc(C)c1NS(C)(=O)=O [Example 19, N-{4-[5-(2-Cyclopentyl-6-methoxy-pyridin-4-yl)-[1,2,4]oxadiazol-3-yl]-2-ethyl-6-methyl-phenyl}-methanesulfonamide] | -61% | – |
